Test results taken from patent US10322125B2, “TGF-beta enhancing compositions for cartilage repair and methods related thereto” (EMORY UNIVERSITY, priority 2013, dated 2019).

Tested on: 3TP-Lux luciferase reporter (TGF-β-responsive region of the PAI-1 gene) in C2C12 cells
Assay: C2C12 cell-based Dual-Luciferase reporter screening assay for TGF-β activity (3TP-Lux)
Set-up: species or system mouse
Conditions: FIG. 6
Method: The C2C12 cells, a mouse myoblast cell line, were obtained from the American Type Culture Collection (ATCC, Manassas, 8 VA). Cells were grown in Dulbecco's modified Eagle medium (DMEM, Gibco Life Technologies, Rockville, Md.) with 10% non heat inactivated fetal bovine serum (Atlanta Biologicals, Norcross, Ga.). The C2C12 cells at passages 4 to 7 were subcultured in T-75 cm2 flasks at 37° C. in a humidified atmosphere containing 5% CO2. When the flasks reached 80% confluence, the cells were trypsinized and seeded in triplicate at 50,000 cells/well in a 12-well plate for the Dual-Luciferase reporter assay.
The C2C12 cells were seeded at a 50,000 cell/well in 12-well plates on day 1. […]
For each well, a total of 1 μg DNA was used for the cotransfection and concentration of pGL4.74 Renilla luciferase vector was 1/15 of 3TP-Lux reporter plasmid. […] On day 5, the luciferase activity was measured using the luciferase assay kit (Promega, Madison, Wis.) according to the manufacturer's instructions on a luminescence reader (VictorTMX Light, PerkinElmer Life and Analytical Sciences, Waltham, Mass.). […]

TGF-β: Transforming growth factor beta, a secreted protein; cells were treated with TGF-β1 in the reporter assay
reporter response at higher TGF-β doses (doses ranging from 10 ng/ml to 100 ng/ml of TGF-β, compared with 5 ng/ml dose, DMSO instead of compounds): did not increase reporter response beyond 5 ng/ml dose | TGF-β dose at which maximum reporter response was reached (luciferase reporter assay, DMSO solvent instead of compounds): 5 ng/mL
